Consider 9 compounds from ChEMBL document CHEMBL1201862, “PubChem BioAssay data set” (2004).

Usually EC50 stands for the concentration giving half of the maximal effect. In general, IC50 refers to the concentration needed to halve the response being measured. One may read the AC50 as the midpoint of the concentration-response curve, whichever way the signal moves. A word on the CC50: it is the concentration at which the toxic effect on the cells reaches its halfway point.

Test [1] addresses T1, Serine/threonine-protein phosphatase (Candida dubliniensis (strain CD36 / CBS 7987 / NCPF 3949 / NRRLY-17841) (Yeast), UniProt B9W6M3).
T1 sequence (B9W6M3 whole entry): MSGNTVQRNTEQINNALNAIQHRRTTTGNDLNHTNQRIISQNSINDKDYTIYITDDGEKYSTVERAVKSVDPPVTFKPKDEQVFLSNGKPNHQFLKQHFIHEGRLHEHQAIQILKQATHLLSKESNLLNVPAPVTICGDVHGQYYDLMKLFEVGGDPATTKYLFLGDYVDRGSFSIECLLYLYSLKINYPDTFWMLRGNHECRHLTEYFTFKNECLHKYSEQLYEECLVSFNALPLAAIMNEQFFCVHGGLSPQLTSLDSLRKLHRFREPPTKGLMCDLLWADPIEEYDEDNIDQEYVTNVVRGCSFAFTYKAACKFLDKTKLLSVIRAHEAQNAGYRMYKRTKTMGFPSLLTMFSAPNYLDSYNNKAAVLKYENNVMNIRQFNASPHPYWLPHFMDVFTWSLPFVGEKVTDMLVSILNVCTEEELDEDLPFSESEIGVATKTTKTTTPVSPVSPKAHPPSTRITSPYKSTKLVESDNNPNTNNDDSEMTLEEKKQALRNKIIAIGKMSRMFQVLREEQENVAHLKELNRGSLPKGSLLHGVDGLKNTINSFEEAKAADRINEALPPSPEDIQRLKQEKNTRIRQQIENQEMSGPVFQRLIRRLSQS
Nature of the test: calcineurin pathway inhibitors in yeast reporter, dose response, S. cerevisiae, CDRE-lacZ, luminescence, secondary (AID 2388).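 Also: yeast reporter cells carrying a calcineurin-responsive lacZ construct stimulated with calcium chloride; luminescent beta-galactosidase reporter signal in whole cells rather than isolated phosphatase activity; potency for inhibition where a drop in reporter signal means calcineurin blockade.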 In kind it is functional, cell-based.

A short description of test [2]: NIH-3T3 fibroblast cytotoxicity, dose response, cytotoxicity control, cell-based, fluorescence, Alamar Blue, secondary assay (AID 2327).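 Also: NIH-3T3 mouse fibroblasts cultured with fluconazole at 8 µg/mL.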 In kind it is functional.
For test [3], the target named is ATP-dependent molecular chaperone HSP82 (Candida albicans (strain WO-1) (Yeast), UniProt C4YTQ8). The experiment in a line: loss of DOC-induced GRE-beta-galactosidase reporter signal, dose response, Hsp90 inhibitor project, S. cerevisiae, luminescence (AID 2400).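 Also: beta-galactosidase luminescence from glucocorticoid response element reporter as proxy for Hsp90 function; inhibitor potency where signal loss means Hsp90 inhibition.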 It counts as functional, cell-based.
Chain of ATP-dependent molecular chaperone HSP82 (C4YTQ8 whole entry): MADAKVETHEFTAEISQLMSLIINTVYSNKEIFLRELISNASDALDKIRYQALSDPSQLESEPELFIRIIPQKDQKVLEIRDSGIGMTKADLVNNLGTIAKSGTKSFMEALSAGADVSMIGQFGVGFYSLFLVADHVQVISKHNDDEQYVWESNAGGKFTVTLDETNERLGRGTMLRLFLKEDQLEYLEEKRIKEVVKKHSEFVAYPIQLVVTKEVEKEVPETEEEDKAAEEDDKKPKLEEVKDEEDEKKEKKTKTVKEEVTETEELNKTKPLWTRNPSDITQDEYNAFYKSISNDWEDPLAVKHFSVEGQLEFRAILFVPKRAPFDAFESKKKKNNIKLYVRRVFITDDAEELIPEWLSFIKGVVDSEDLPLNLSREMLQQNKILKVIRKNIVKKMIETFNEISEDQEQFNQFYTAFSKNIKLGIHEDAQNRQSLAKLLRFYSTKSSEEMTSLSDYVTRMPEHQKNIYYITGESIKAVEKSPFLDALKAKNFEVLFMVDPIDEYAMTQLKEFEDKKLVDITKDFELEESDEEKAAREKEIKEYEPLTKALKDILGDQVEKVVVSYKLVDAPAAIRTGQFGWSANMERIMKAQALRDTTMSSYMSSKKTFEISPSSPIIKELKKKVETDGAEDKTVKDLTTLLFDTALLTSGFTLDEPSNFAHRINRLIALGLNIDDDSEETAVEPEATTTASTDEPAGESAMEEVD
The nature of test [4]: C. albicans growth with fluconazole, confirmation, fluorescence, retest (AID 2467). In kind it is functional, cell-based.
For test [5], the target named is T2, Nuclear receptor subfamily 0 group B member 1 (Homo sapiens, UniProt P51843).
T2 sequence (P51843 whole entry): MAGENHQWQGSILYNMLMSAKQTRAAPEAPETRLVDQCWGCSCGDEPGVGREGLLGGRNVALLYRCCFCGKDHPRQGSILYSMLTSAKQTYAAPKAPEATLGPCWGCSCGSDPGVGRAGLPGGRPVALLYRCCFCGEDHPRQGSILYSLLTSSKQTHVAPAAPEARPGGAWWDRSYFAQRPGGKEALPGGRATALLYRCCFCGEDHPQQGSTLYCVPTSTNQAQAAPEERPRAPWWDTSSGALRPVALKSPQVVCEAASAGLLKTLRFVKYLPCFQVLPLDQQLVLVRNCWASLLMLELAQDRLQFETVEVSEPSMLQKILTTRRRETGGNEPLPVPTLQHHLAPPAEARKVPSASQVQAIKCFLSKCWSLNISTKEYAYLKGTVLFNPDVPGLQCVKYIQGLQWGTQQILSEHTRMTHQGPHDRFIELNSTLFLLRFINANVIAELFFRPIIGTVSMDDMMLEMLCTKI
Nature of the test: Luminescence-based cell-based high throughput dose response assay for inhibitors of the orphan nuclear receptor subfamily 0, group B, member 1 (DAX1; NR0B1). [Related pubchem assays (depositor defined):AID504766, AID504790]. In kind it is functional.

In test [6] the test system is HEK293. The experiment in a line: cells. As to conditions: Homo sapiens. It counts as functional, cell-based.
The target in test [7] is Beta-galactosidase (Escherichia coli, UniProt Q8VNN2). Nature of the test: PubChem AID 485352. In kind it is functional.
Chain of Beta-galactosidase (Q8VNN2 whole entry): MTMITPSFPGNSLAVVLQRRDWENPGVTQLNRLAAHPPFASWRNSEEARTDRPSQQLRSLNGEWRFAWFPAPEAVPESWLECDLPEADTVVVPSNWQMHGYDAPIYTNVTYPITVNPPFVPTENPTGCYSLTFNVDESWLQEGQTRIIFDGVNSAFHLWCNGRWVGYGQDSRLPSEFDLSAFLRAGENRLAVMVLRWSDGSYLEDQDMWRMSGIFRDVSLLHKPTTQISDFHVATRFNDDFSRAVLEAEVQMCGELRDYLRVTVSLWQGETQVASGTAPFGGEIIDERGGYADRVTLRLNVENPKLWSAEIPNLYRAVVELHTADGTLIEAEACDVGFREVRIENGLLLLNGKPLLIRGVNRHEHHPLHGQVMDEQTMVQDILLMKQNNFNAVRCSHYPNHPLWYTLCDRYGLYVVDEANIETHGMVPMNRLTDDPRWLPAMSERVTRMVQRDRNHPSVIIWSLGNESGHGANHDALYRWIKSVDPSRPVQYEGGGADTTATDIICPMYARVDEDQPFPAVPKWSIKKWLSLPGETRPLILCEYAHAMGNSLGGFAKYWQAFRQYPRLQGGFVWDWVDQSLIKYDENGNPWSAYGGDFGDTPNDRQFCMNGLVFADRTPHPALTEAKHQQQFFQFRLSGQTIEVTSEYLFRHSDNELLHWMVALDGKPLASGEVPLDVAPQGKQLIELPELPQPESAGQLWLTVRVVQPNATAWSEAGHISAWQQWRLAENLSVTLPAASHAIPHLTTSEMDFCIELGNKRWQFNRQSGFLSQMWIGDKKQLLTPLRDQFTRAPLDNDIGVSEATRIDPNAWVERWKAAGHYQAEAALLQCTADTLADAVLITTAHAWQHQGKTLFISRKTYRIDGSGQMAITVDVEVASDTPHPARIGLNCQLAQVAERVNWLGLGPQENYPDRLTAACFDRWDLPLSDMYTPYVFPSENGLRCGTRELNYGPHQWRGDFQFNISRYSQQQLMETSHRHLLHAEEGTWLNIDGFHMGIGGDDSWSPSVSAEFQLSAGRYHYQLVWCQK
Test [8] concerns the target T3, Type-1 angiotensin II receptor (Homo sapiens, UniProt P30556).
T3 sequence (P30556 whole entry): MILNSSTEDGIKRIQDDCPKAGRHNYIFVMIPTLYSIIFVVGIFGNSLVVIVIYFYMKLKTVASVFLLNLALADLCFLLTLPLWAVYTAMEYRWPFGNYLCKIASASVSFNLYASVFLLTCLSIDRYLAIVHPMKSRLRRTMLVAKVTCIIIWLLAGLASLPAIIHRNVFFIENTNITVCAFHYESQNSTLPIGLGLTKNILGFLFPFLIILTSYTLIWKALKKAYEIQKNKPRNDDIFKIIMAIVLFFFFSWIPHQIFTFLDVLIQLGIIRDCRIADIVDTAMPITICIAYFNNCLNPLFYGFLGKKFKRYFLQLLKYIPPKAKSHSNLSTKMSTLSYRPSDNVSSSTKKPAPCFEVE
Nature of the test: AT1 receptor antagonists, dose response, selectivity assay for APJ receptor antagonist project, cell-based, uHTS hits (AID 463214).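 Also: antagonist potency against angiotensin II stimulated AT1 response.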 It counts as functional.

The target of test [9] is T4, Sentrin-specific protease 7 (Homo sapiens, UniProt Q9BQF6).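 Also: Luminescence-based dose-response confirmation of ultra-high-throughput screening hits, measuring inhibition of SENP7.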
T4 sequence (Q9BQF6 whole entry): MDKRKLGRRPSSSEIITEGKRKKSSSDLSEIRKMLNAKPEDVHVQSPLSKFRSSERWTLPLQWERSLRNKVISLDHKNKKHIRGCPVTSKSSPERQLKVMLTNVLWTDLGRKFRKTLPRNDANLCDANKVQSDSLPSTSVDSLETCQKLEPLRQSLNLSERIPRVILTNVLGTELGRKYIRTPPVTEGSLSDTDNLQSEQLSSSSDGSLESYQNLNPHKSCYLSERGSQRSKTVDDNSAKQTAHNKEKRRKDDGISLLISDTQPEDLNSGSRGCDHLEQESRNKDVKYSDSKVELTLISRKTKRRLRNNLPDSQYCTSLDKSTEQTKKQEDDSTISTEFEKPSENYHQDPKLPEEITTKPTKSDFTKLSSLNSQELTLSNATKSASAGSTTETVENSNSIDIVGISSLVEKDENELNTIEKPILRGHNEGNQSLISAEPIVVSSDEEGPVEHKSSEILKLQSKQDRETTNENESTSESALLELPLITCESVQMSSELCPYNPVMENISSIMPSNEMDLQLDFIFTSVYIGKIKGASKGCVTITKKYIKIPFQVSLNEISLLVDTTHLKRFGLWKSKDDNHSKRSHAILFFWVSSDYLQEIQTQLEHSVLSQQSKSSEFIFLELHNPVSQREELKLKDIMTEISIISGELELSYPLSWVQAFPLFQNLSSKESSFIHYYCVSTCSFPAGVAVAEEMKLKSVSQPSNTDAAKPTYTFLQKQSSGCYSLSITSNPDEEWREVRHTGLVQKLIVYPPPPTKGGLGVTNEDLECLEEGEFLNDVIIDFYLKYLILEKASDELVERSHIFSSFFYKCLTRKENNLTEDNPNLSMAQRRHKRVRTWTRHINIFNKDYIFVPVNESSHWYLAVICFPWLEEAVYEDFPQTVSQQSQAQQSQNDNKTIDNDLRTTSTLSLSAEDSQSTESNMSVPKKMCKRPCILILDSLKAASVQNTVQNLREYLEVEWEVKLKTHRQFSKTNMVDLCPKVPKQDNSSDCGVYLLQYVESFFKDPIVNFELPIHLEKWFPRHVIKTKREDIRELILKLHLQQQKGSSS
It counts as functional.

The target of test [10] is T5, Sentrin-specific protease 6 (Homo sapiens, UniProt Q9GZR1).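 Also: Luminescence-based dose-response confirmatory assay of SENP6 inhibition, following up an ultra-high-throughput screen.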
T5 sequence (Q9GZR1 whole entry): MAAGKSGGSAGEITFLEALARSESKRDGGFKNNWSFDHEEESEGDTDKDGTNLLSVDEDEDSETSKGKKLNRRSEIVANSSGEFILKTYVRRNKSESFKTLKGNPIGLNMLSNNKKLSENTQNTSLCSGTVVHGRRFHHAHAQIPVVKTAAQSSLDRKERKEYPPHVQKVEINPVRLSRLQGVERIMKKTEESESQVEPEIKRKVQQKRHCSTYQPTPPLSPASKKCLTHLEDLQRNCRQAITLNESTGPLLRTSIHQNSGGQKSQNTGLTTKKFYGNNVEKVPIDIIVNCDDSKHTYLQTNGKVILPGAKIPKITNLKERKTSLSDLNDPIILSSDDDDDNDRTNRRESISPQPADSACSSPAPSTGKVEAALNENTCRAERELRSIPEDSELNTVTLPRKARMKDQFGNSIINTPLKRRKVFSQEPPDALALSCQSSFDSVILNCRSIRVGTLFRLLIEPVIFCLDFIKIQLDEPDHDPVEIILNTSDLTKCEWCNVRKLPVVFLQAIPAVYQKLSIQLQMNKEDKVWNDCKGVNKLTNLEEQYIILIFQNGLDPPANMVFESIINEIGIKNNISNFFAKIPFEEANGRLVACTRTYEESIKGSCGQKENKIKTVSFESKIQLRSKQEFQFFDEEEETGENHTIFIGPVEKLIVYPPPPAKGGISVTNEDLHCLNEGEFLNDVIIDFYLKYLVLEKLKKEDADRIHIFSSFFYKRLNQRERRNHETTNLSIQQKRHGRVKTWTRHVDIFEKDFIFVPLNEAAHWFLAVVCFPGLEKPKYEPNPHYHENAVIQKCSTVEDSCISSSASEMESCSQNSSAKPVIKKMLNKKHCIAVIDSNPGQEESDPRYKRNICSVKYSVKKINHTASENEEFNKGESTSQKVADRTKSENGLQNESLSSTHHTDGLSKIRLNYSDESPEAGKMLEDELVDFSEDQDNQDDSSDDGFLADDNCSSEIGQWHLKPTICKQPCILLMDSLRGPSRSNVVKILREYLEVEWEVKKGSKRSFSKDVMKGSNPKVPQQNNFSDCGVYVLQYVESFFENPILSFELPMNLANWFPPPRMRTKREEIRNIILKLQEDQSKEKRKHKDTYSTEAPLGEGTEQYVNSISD
In kind it is functional.

Test [11] deals with T6, Sentrin-specific protease 8 (Homo sapiens, UniProt Q96LD8).
T6 sequence (Q96LD8 whole entry): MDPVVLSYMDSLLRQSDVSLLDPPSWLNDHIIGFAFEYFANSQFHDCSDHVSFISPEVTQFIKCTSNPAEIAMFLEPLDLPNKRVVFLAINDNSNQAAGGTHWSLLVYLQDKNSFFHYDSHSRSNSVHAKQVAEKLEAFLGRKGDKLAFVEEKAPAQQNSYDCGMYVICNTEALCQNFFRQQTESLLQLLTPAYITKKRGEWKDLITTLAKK
It counts as functional.

In test [12] the target is Voltage-gated inwardly rectifying potassium channel KCNH2 (Homo sapiens, UniProt Q12809). Conditions: Potency.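 Also: confirmatory quantitative high-throughput screen measuring inhibition of hERG channel activity.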
Chain of Voltage-gated inwardly rectifying potassium channel KCNH2 (Q12809 whole entry): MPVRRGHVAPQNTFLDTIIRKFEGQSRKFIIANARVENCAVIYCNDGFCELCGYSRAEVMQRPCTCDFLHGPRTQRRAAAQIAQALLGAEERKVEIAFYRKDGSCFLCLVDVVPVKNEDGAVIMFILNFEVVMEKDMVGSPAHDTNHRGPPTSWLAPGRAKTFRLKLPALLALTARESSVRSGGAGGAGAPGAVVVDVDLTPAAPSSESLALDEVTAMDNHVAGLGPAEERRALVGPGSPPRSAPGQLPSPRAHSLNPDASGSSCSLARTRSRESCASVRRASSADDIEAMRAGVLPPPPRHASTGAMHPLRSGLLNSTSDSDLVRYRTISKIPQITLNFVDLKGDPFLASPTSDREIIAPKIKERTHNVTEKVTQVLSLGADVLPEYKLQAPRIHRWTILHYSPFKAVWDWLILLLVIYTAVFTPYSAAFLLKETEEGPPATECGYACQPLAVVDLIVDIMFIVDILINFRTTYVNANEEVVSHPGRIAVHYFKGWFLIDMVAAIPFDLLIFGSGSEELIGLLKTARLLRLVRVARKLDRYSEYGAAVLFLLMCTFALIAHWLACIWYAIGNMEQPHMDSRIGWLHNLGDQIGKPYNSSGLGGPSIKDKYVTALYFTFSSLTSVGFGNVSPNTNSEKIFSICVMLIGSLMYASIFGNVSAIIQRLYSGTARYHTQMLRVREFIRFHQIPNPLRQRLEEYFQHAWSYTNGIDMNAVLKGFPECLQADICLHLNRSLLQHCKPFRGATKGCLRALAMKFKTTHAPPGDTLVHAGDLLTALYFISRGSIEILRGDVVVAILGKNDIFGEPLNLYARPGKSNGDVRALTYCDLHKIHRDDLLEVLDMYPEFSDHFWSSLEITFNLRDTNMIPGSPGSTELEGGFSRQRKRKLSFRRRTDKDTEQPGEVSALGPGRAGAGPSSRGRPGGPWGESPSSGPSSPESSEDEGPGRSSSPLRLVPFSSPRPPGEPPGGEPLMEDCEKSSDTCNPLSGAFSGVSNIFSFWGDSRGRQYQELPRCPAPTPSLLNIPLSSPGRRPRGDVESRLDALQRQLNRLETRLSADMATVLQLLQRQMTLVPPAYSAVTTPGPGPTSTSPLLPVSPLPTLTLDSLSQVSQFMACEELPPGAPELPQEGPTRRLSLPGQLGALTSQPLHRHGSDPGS
Test [13] concerns the target T7, Caspase-3 (Homo sapiens, UniProt P42574).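 Also: Dose-response selectivity test against caspase-3 for candidate inhibitors of sentrin-specific proteases (SENPs).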
T7 sequence (P42574 whole entry): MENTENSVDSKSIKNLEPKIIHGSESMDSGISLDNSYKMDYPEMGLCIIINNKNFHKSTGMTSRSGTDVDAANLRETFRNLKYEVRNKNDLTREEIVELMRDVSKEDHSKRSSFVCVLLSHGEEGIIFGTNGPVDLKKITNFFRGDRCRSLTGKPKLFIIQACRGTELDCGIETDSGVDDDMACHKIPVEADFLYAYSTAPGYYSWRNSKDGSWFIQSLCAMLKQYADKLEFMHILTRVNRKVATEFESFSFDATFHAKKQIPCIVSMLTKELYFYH
In kind it is functional.

The test system of test [14] is HeLa. The experiment in a line: HeLa cell cytotoxicity, dose response, cytotoxicity control for MITF activator project, CellTiter-Glo luminescence, cherry-pick samples (AID 540259). As to conditions: Homo sapiens. It counts as functional, cell-based.
Test [15] in a line: HEp-2 cell cytotoxicity, dose response, cytotoxicity control for RSV inhibitor project, HTS (AID 2410). It counts as functional. As to conditions: human respiratory syncytial virus.
Test [16] concerns Vero. Nature of the test: Vero cell cytotoxicity, cytotoxicity control for flavivirus capping enzyme inhibitors (AID 588742). It counts as functional. As to conditions: Chlorocebus sabaeus.

Each structure is given as a SMILES string. The source made the active and inactive calls. A value given as a limit tells only on which side of the number the result lay.

Consider `COc1ccc(-n2nc(C(=O)NCC(=O)NCCC3=CCCCC3)c3ccccc3c2=O)c(OC)c1`, for which the EC50 in test [1] is > 180 µM (inactive); in test [2], > 150 µM (inactive); in [3], > 150 µM (inactive); in test [4], 0.469 µM (active).
As to `C/C(=N\NC(=O)c1nn(C)cc1Br)c1ccncc1`, the IC50 in [5] and in test [6] was > 67.6 µM (inactive) each time.
Turning to `CCOC(=O)c1nn(-c2ccc(Cl)cc2)cc1O`, the IC50 in test [5] and in [6] was > 67.5 µM (inactive) in each case.
In the case of `O=C(CN1C(=O)C2C3C=CC(C3)C2C1=O)OCC(=O)c1ccc(Cl)c([N+](=O)[O-])c1` (stereo unspecified), the EC50 in [7] is > 40 µM (inactive). Moreover, the IC50 in test [8] is 14.3 µM (active).
Consider `Cc1ccc2c(c1N)C(=O)c1ccccc1C2=O`, for which the IC50 was 4.33 µM (active) in test [9], 42.3 µM (active) in [10], > 100 µM (inactive) in [11] and 11.8 µM (active) in test [13]. The AC50 was 35.5 µM (inconclusive) in test [12] and 36 µM (active) in test [14].
With `COc1ccccc1N1CCN(C(S)=Nc2ccc3nc(N4CCOCC4)cc(C)c3c2)CC1`, the results for the CC50 in test [15] and in [16] were 39.1 µM (active) and > 40 µM (active), respectively.
Turning to `O=C(CNc1ccccc1C(=O)O)c1ccccc1`, the EC50 in test [7] is > 40 µM (inactive). Further, the IC50 in test [8] is 7.51 µM (active).
Regarding `Cc1nn(-c2ccccc2)c(C)c1C(=O)OC/C(O)=C(\C#N)c1nc2ccccc2[nH]1`, the EC50 in test [1] was > 180 µM (inactive); in [2], > 150 µM (inconclusive); in [3], > 150 µM (inactive); in test [4], 0.764 µM (active).
`CCOc1ccc(-n2c(=O)[nH]c3sc4c(c3c2=O)CCCC4)cc1`: the IC50 in [5] and in test [6] was > 67.6 µM (inactive) in each case.
